The values that follow come from patent US20010006966A1, “Use of 1- (aminoalkyl) -3-quinoxaline-2-on derivatives for the preparation of compounds having an antioxidant action” (priority 1998, published 2001).

One series concerns skin cancer. The series can be described thus: Prevention of skin cancer in UV-irradiated guinea pigs. Format: in vivo. The following applies: highly concentrated solution brushed on shaved neck; for cancer cells in tissue samples after two weeks of UV irradiation: UV-A, UV-B, UV-C at least two hours per day. The source says:
Use of 1-(aminoalkyl)-3-quinoxaline-2-on derivatives for preventing skin cancer in guinea pigs.
A group of six guinea pigs was shaved in the neck region and exposed to intensive UV irradiation over a period of at least two hours per day. The UV irradiation contained portions of both UV-A and UV-B and UV-C rays. A highly concentrated solution of Caroverine.hydrochloride was brushed on the shaved neck regions of four of the six guinea pigs prior to the commencement of the first irradation, wherein attention was paid to that the distribution was effected as uniform as possible and over all of the irradiated zone.

For series [1] the following is noted: human, in vivo.
In a further series the test system is HIV. The series can be described thus: HIV replication in macrophages derived from monocytes. Format: cell-based.
The test system of another series is nerve cells. The series can be described thus: In vitro tests for neuroregenerative effect. Format: cell-based. Conditions: low dosages, dosages known from the literature.
A further series has as its system auditory nerve. The experiment in a line: Sound audiogram in patients with severe sudden loss of hearing / cochlear implant. The class given is in vivo, human. The procedure: By way of clinical examples, the efficacy of Caroverine (1-diethylaminoethyl-3-(p-methoxybenzyl)-1,2-dihydroquinoxaline-2-on) as a neuroregenerative substance was tested in two patients suffering from a severe sudden loss of hearing. In the enclosed diagram of FIG. 1, the sound audiogram of a patient is shown, the dot-and-dash line illustrating the sound audiogram after a sudden loss of hearing, the broken line illustrating the sound audiogram immediately upon commencement of the treatment, and the full line illustrating the patient's sound audiogram two weeks after the beginning of treatment, the patient over that period having been treated by the administration of an elevated dose of Caroverine. 240 mg Caroverine dissolved in 250 ml physiological saline were each slowly administered intravenously three times a day. […] A cochlear implant was not inserted.

A short description of series [2]: Treatment of patients suffering from Alzheimer's disease. Format: in vivo, human. The following applies: three weeks. The text has this:
By way of two male patients aged between 70 and 75 and suffering from Alzheimer's disease, the effect of Caroverine as a neuroregenerative substance was further investigated. The patients had average body weights of 75 kg and were in-patients. […] The time of treatment in each case was maintained for three weeks.

Series [3] in a line: Treatment of patients suffering from periodic schizophrenia. Format: in vivo, human. The protocol: 4 patients, two female and two male patients, aged between 40 and 50 and suffering from periodic schizophrenia were treated with elevated doses of Caroverine during massive attacks. […] The treatment time was 7 days, 14 days and 21 days, respectively.
For another series, the system named is facial nerve. The series can be described thus: Treatment of patients suffering from facial nerve paralysis. Format: in vivo, human. The protocol:
The neuroregenerative action of Caroverine was further investigated by way of two patients suffering from facial nerve paralysis. Two female patients suffering from a serious paralysis of the […] nerve were treated with Caroverine in the form of a combined cure over a period of 4 weeks, wherein, on the one hand, Caroverine was applied three times a day by intravenously administering 360 mg Caroverine each and the active substance, in addition, was administered in the form of a depot plaster containing 1000 mg Caroverine. The depot plaster was replaced once a week.

Series [4] is described as follows: Speech and articulation capacity of a patient after a stroke. The following applies: 4×160 mg i.v. per day, 3 months, approximately 50% at beginning of treatment. The class given is in vivo, human. The procedure: A patient suffering from serious speech impediments due to a stroke was intravenously administered Caroverine over a period of 3 months at an elevated dose of 4×160 mg Caroverine in physiological saline per day.

Series [5] in a line: ABTA cation radical formation and reduction, photometric at 420 nm. Format: biochemical. The protocol: (§1) In respect of the antioxidative effect of 1-(aminoalkyl)-3-quinoxaline-2-on derivatives and in respect of their radical interceptor properties, in vitro tests were carried out with Caroverine and the specific radical intercepting reagent 2,2′-azino-bis(3-ethylbenz)thiazoline-6-sulfonic acid (ABTA) in order to compare the radical interceptor property of Caroverine with that of ABTA. In the presence of highly reactive radicals, ABTA is oxidized to the stable thiazoline cation radical ABTA^+. The intensive green color of that radical was photometrically measured with a main absorption band at 420 nm. […] Caroverine reacted rapidly with free hydroxyl, peroxyl and ABTA cation radicals, as was shown in comparative studies with ABTA in the absence and in the presence of cerebral homogenate. The rate constant for the reaction with hydroxyl radicals was 0.4×10^10 M/l/s and that for peroxyl radicals was 0.5×10^10 M/l/s, as was realized by comparative kinetic studies with ABTA in the absence or in the presence of cerebral homogenate (FIG. 6). […] In doing so, ABTA cation radical formation and reduction were applied, as already mentioned, in order to examine the single electron transfer reactions, since that substance enables direct measurements of radical formation and radical reduction on account of its color.

Series [6] is described as follows: Comparative kinetic studies with ABTA, hydroxyl radicals. The following applies: absence or presence of cerebral homogenate. The class given is biochemical. The protocol:
as §1

A short description of series [7]: Comparative kinetic studies with ABTA, peroxyl radicals. The class given is biochemical. The following applies: absence or presence of cerebral homogenate. The protocol: as §1
A short description of series [8]: Comparative studies of antioxidant and radical interceptor property. Format: biochemical. The text has this:
wherein R is hydroxy, methoxy, ethoxy or hydrogen, or pharmaceutically acceptable salts thereof, for the preparation of compositions acting as antioxidants for preventing or treating diseases caused by free radicals of the oxygen cell metabolism, for stimulating the growth of nerve cells, antagonizing glutamate receptors and/or stimulating the growth of, in particular glutamatergic, nerve cells. […] Moreover, it has been shown in a surprising manner that specific 1-(aminoalkyl)-3-quinoxaline-2-on derivatives and, in particular, Caroverine are capable of antagonizing metabotropic glutamate receptors. Since glutamate receptors and, in particular, metabotropic glutamate receptors have been recognized as promoters or catalysts of intracellular metabolism, Caroverine and other 1-(aminoalkyl)-3-quinoxaline-2-on derivatives are capable of antagonizing, i.e., markedly retarding, in particular, that intracellular metabolism.
For that reason, Caroverine is supposed to be able to facilitate the repair of long-lived organic radicals and damaged biomolecules.

Series [9] is described as follows: Treatment of patients suffering from type I allergy (hay fever). Format: in vivo, human. Conditions: 5 hay fever patients, tablet 150 mg three times a day. The procedure: 5 patients, 2 female and 3 male patients, suffering from type I allergy, namely hay fever, were treated with Caroverine at the occurrence of allergical primary reactions, i.e., sneezing, cervical irritations as well as rhinorrhea. They each received one tablet containing 150 mg Caroverine three times a day.
For comparative reasons, two patients were treated with usual antihistamines, wherein both the primary manifestations of the allergy and, in particular, the secondary manifestations could not be suppressed immediately and completely such that the patients were suffering from their disease hay fever substantially as long as straining by the causers, namely grass pollens, was maintained. Nor was it possible to discontinue the administration of the medicament as long as pollen flight was observed.

Series [10] relates to metabotropic group I glutamate receptors. The series can be described thus: Antagonism of metabotropic group I glutamate receptors in the ear of guinea pigs (behavior, ear electrodes). The class given is in vivo. The following applies: 8 mg/kg into the vein of the ear. The procedure:
Use of 1-(aminoalkyl)-3-quinoxaline-2-on derivatives as antagonists of the metabotropic group I glutamate receptors in the ear of guinea pigs.
A group of six guinea pigs was injected hydroxyphenyl glycerin as a receptor agonist into the ear, the receptor responding in a manner so as to strongly increase the auditory performance of the guinea pigs. […] Four of the six guinea pigs were subsequently injected a dose of 8 mg/kg body weight of the guinea pig into the vein of the ear and the behavior of the guinea pigs was observed. […] These behavioral peculiarities of the guinea pigs were also observed by applying electrodes to the ears of the animals, from whose measured data it could be readily read whether the exposure of the animals to unexpected noises caused excitement or not.

Series [11] shares this test system. The series can be described thus: Microelectrodes on the auditory nerve of the narcotized animal. Format: in vivo, guinea pigs. The text has this:
Furthermore, the inhibiting influence of Caroverine on the metabotropic group I glutamate receptors was investigated on the narcotized animal by applying microelectrodes to the auditory nerve.

For another series, the system named is carcinoma of the colon. The series can be described thus: Patients with carcinoma of the colon, added to chemotherapy. The class given is in vivo, human. Conditions: three patients; with Irinothekam and Oxaliplatine; day 1 i.v., other days 3×3 tablets a day. The source says: Three patients aged between 19 and 75 and suffering from carcinoma of the colon were additionally administered Caroverine beside the usual chemotherapy with Irinothekam and Oxaliplatine for the four-week period of chemotherapy, the administration on day 1 having been effected at an elevated dose, i.e., intravenously in physiological saline, and on the other days by administering 3×3 tablets a day.

The subject of series [12] is advanced head and throat tumors. The series can be described thus: Patients with advanced head and throat tumors, added to chemotherapy. Format: in vivo, human. Conditions: beside the regular chemotherapy.
Another series concerns Ca2+ ion flux into cells. The following applies: as stated in EP-A 0 032 564; cited from earlier work.

On to `CCN(CC)CCn1c(=O)c(Cc2ccc(O)cc2)nc2ccccc21` [1-diethylaminoethyl-3-(p-hydroxybenzyl)-1,2-dihydroquinoxaline-2-on], for which the “cancer cells in tissue samples after two weeks of UV irradiation” value in the series with skin cancer is reported as “identical result”. In the series on assayed cells, the “harmful side effects on the assayed cells” value was “without harmful side effects”. The “harmful side effects in test animals and patients” value in series [1] was “without harmful side effects”.
In the case of `CCN(CC)CCn1c(=O)c(Cc2ccc(OC)cc2)nc2ccccc21` [Caroverine, 1-diethylaminoethyl-3-(p-methoxybenzyl)-1,2-dihydroquinoxaline-2-on], the “replication of HIV in macrophages derived from monocytes” value with HIV is “markedly reduced”. Also, the neuroregenerative effect result in the series on nerve cells was “no neuroregenerative effect”. The “improvement of hearing performance (sound audiogram, FIG. 2), low doses” value in the series with auditory nerve (patient, 160 mg three times a day) is “little significant”. For the same compound, the “hearing performance (sound audiogram, FIG. 1)” value with auditory nerve (patient, 240 mg in 250 ml saline i.v. three times a day, two weeks) is “marked increase in the hearing performance”. Besides, in the series on auditory nerve (patient, 240 mg/250 ml saline four times a day, two weeks, cochlear implant inserted), the “hearing performance 0.125 to 2 kHz (sound audiogram, FIG. 2), high doses plus cochlear implant” value was “nearly corresponds to the hearing performance of a healthy individual”. Also, the “hearing performance 0.250 to 8 kH (sound audiogram, FIG. 3)” value with auditory nerve (patient, 300 mg in 500 ml saline each day, two weeks, no cochlear implant) is given as “essentially corresponds to the hearing performance of a healthy individual”. Further, the “audition of patients carrying cochlear implants” value with auditory nerve (simultaneous administration with cochlear implant) is recorded as “clearly enhancing the audition”. Also, the “condition of Alzheimer patients, lower dose” value in series [2] (160 mg in 250 ml saline i.v. three times a day) is “not as pronounced and sustained”. For the same compound, the “condition of Alzheimer patients at end of treatment” value in series [2] (two male patients, 400 mg infusion three times a day) was “marked improvement in the conditions”. The “persistence of the improvement beyond the treatment time” value in series [3] (400 mg infusion three times a day, 7, 14 or 21 days) was “only that patient whose treatment time was 21 days was successful even beyond the treatment time”. In series [3] (4 patients, 400 mg infusion three times a day, 7, 14 or 21 days), the “behavior of schizophrenia patients during treatment” value is “marked improvements in their behaviors”. Besides, in [3] (daily dose 240 mg or 400 mg Caroverine in combination with 10 mg Haloperidole), the “behavior of schizophrenia patients, combination with Haloperidole” value is listed as “results analogous to those of the higher-dose administration of Caroverine”. Besides, in [3] (schizophrenia patients), the “serious side effects usual with psychopharmacological agents (apathetic conditions, weight gains)” value is on record as “could be avoided”. Moreover, the “signs of facial paralysis on further extension of treatment” value in the series with facial nerve (same regimen, extended period) is “additional reductions of the paralytical signs”. The “signs of facial paralysis after 2 weeks” value with facial nerve (two female patients, 360 mg i.v. three times a day plus depot plaster 1000 mg weekly) was “improvement in the signs of paralysis”. Also, the “articulation capacity after the end of treatment (FIG. 4)” value in series [4] came out at 100%. The “formation of the ABTA cation radical due to hydroxyl and peroxyl radicals (FIG. 5)” value in series [5] (in the absence and in the presence of cerebral homogenate) was “able to inhibit the formation of the ABTA cation radical”. The “ABTA cation radical reduction” value in [5] (in the presence and in the absence of cerebral homogenate) was “catalyzes ABTA cation radical reduction”. For the same compound, the “activity as an electron donor” value in series [5] (low, micromolar concentrations) is “highly active as an electron donor”. The “rate constant for the reaction with hydroxyl radicals (FIG. 6)” value in [6] is recorded as 0.4×10^10 M/l/s. Further, the “rate constant for the reaction with peroxyl radicals (FIG. 6)” value in series [7] is given as 0.5×10^10 M/l/s. Moreover, in [8], the “effectiveness relative to the known antioxidants Ascorbate, Trolox and Glutathione” value is “at least three times as effective”; the “radical interceptor property relative to Melatonine” value was “reach that of Melatonine”. The “secondary manifestations of the allergic reactions (cervical rubor and the like)” value in series [9] was “could be avoided”. The “primary reactions (sneezing, rhinorrhea and the like)” value in series [9] (after two-day administration) is listed as “completely disappeared”. The “excitement upon unexpected noises, measured data of ear electrodes” value in series [10] is reported as “excitement was effected not at all or only to an extremely slight extent”. Besides, in [10] (four of six guinea pigs), the “behavior of guinea pigs upon noise after receptor agonist hydroxyphenyl glycerin” value is recorded as “calmed down immediately”. Moreover, the “excitability of the metabotropic group I glutamate receptors” value in [11] is “strongly suppressed”. Moreover, the “colon carcinoma after four-week chemotherapy plus Caroverine” value in the series with carcinoma of the colon was “complete disappearance of the colon carcinoma”. Besides, in series [12], the “complete disappearance of head and throat tumors” value is given as “No complete disappearance of the tumors was feasible”; the “tumor size, head and throat tumors” value is given as “reduction of the tumor size”. The “harmful side effects on the assayed cells” value in the series on assayed cells is “without harmful side effects”. Further, the “harmful side effects in test animals and patients” value in series [1] was “without harmful side effects”. Moreover, the “inhibition of the Ca2+ ion flux into cells” value in the series on Ca2+ ion flux into cells is reported as “up to 50%”.
`CCN(CC)CCn1c(=O)c(Cc2ccc(OC)cc2)nc2ccccc21.Cl` [Caroverine.hydrochloride]: in the series with skin cancer, the “skin injuries after two weeks of UV irradiation” value was “some reddening of the skin” and the “cancer cells in tissue samples after two weeks of UV irradiation” value is reported as “no cancer cells could be detected”.
